Results on three compounds are retold here after ChEMBL document CHEMBL4420076, “Amylin and calcitonin receptor agonist” (2017).

For orientation: EC50 means the concentration that produces a half-maximal response. What is called IC50 is the concentration that gives 50% inhibition. Usually solubility stands for the dissolved amount per volume that the medium holds.

Numbered stars: 1 amine (or outer) side, 2 acyl side, 3 side chain; on linkers, the order of the positions; unused ones are H or OH. Peptide text beside a SMILES is read from it. * marks the point of attachment. C20 diacid = O=C(O)CCCCCCCCCCCCCCCCCCC(=O)*; C18 diacid = O=C(O)CCCCCCCCCCCCCCCCC(=O)*; γGlu = O=C(O)[C@H](CCC(=O)[*:2])N[*:1]; C14 diacid = O=C(O)CCCCCCCCCCCCC(=O)*

For data set [1], the target named is T1, Calcitonin receptor (Homo sapiens, UniProt P30988).
T1 sequence (P30988 whole entry): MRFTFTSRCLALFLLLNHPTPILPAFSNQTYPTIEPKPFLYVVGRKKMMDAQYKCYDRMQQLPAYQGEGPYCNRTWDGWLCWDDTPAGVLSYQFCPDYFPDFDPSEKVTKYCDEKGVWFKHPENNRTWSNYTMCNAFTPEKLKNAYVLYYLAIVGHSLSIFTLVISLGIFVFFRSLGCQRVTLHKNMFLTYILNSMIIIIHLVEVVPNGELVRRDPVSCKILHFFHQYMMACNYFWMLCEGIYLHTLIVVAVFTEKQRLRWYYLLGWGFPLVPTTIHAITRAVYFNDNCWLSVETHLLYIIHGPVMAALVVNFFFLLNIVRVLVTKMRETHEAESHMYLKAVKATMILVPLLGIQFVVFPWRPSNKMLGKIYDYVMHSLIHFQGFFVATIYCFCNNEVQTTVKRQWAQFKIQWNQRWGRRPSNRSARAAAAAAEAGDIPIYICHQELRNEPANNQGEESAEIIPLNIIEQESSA
The data set is described as follows: Agonist activity at human calcitonin receptor expressed in BHK570 cells assessed as increase in intracellular cAMP concentration incubated for 3 hrs in absence of albumin by CRE luciferase reporter gene assay. It counts as functional, cell-based.

Data set [2] addresses T2, Amylin receptor AMY3; CALCR/RAMP3 (Rattus norvegicus, UniProt P32214+Q9JJ73).
T2 sequence (P32214 whole entry): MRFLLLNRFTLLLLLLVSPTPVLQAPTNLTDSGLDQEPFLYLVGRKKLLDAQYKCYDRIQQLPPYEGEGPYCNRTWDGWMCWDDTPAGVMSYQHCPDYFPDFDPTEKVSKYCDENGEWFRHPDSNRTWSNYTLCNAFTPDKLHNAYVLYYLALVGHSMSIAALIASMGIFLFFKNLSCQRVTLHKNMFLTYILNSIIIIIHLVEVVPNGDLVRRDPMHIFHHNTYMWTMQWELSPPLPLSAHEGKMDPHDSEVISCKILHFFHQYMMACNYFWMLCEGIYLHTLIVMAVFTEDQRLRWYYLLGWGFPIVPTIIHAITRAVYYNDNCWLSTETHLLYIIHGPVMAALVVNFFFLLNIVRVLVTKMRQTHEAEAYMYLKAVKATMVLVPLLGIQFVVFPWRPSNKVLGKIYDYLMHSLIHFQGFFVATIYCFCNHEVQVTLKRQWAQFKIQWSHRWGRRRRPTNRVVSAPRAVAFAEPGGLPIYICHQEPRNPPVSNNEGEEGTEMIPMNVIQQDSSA
T2 sequence (Q9JJ73 whole entry): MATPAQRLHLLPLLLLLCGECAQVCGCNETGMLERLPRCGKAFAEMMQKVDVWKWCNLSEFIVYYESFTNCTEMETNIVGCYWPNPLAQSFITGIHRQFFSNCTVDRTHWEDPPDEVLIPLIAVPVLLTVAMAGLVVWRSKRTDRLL
In words: Displacement of [125I]-labeled rat amylin from rat amylin receptor expressed in BHK tkts13 cell membranes co-expressing RAMP3 incubated for 120 mins by scintillation proximity assay. In general terms: Displacement assays read how much labelled ligand stays bound in the presence of the test substance.

Data set [3] concerns the target T1, Calcitonin receptor. In words: Displacement of [125I]-labeled human calcitonin from human calcitonin receptor expressed in BHK tkts13 cell membranes incubated for 1 hr by scintillation proximity assay.
The nature of data set [4]: Solubility in 100 mM bistrispropane buffer at pH 6.0 incubated for 18 hrs by UPLC analysis. It counts as physicochemical.
Data set [5] in a line: Solubility in 100 mM glycylglycine buffer at pH 5.0 incubated for 18 hrs by UPLC analysis. The data set is classed as physicochemical.
Data set [6] concerns the target T3, Amylin receptor AMY3; CALCR/RAMP3 (Homo sapiens, UniProt O60896+P30988).
T3 sequence (P30988 whole entry): T1 sequence (P30988 whole entry)
T3 sequence (O60896 whole entry): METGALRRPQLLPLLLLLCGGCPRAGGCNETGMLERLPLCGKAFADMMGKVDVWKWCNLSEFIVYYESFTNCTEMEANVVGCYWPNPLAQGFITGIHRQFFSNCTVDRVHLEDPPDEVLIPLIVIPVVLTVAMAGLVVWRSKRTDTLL
In words: Displacement of [125I]-labeled rat amylin from human amylin receptor expressed in BHK570 cell membranes co-expressing RAMP3 incubated for 120 mins by scintillation proximity assay.

A short description of data set [7]: Solubility in 100 mM glycylglycine buffer at pH 4.0 incubated for 18 hrs by UPLC analysis. It counts as physicochemical.
Data set [8] can be described thus: Solubility in 100 mM bistrispropane buffer at pH 8.0 incubated for 18 hrs by UPLC analysis. The data set is classed as physicochemical.
Data set [9] in a line: Stability in pH 7.5 buffer assessed as compound recovery at 1 uM by Thioflavin T based fluorescence assay. It counts as physicochemical. The note with it: read-out: Drug recovery.
Data set [10] is described as follows: Solubility in 100 mM bistrispropane buffer at pH 7.5 incubated for 18 hrs by UPLC analysis. The data set is classed as physicochemical.
A short description of data set [11]: Stability in pH 7.5 buffer assessed as lag time for fibril formation at 1 uM by Thioflavin T based fluorescence assay. It counts as physicochemical. Conditions: pH 7.5, 1 µM.
In data set [12] the target is T3, Amylin receptor AMY3; CALCR/RAMP3. The data set is described as follows: Agonist activity at human amylin receptor expressed in BHK570 cells co-expressing RAMP3 assessed as increase in intracellular cAMP concentration incubated for 3 hrs in absence of albumin by CRE luciferase reporter gene assay. The data set is classed as functional, cell-based.
Data set [13] is described as follows: Solubility in 100 mM bistrispropane buffer at pH 6.5 incubated for 18 hrs by UPLC analysis. The data set is classed as physicochemical.
Data set [14] can be described thus: Solubility in 100 mM bistrispropane buffer at pH 7.0 incubated for 18 hrs by UPLC analysis. It counts as physicochemical.
Data set [15] is described as follows: Solubility in 100 mM glycylglycine buffer at pH 3.0 incubated for 18 hrs by UPLC analysis. The data set is classed as physicochemical.
Data set [16] deals with Rattus norvegicus. The data set is described as follows: Reduction in food intake in Sprague-Dawley rat at 3 nmol/kg measured 24 to 48 hrs post dose relative to control. The data set is classed as functional. The arrangement: scale not given: the % may be the effect or the level left.
The target in data set [17] is T3, Amylin receptor AMY3; CALCR/RAMP3. In words: Agonist activity at human amylin receptor expressed in BHK570 cells co-expressing RAMP3 assessed as increase in intracellular cAMP concentration incubated for 3 hrs in presence of 10% FBS by CRE luciferase reporter gene assay. It counts as functional, cell-based. (A reporter such as luciferase makes a cellular process visible.)

Data set [18] has as its system Rattus norvegicus. The data set is described as follows: Reduction in food intake in Sprague-Dawley rat at 3 nmol/kg measured 0 to 24 hrs post dose relative to control. The arrangement: scale not given: the % may be the effect or the level left. The data set is classed as functional.
The target of data set [19] is T1, Calcitonin receptor. The data set is described as follows: Agonist activity at human calcitonin receptor expressed in BHK570 cells assessed as increase in intracellular cAMP concentration incubated for 3 hrs in presence of 10% FBS by CRE luciferase reporter gene assay. The data set is classed as functional, cell-based.
For data set [20], the target named is T3, Amylin receptor AMY3; CALCR/RAMP3. In words: Displacement of [125I]-labeled rat amylin from human amylin receptor expressed in BHK tkts13 whole cells co-expressing RAMP3 incubated for 60 mins by scintillation proximity assay. The data set is classed as cell-based.

For `CC(C)C[C@H](NC(=O)[C@H](C)NC(=O)[C@H](C)NC(=O)[C@@H](NC(=O)[C@H](CO)NC(=O)[C@H](CC(C)C)NC(=O)[C@H](CCC(=O)O)NC(=O)[C@H](CO)NC(=O)[C@H](C)NC(=O)CC[C@H](NC(=O)CCCCCCCCCCCCC(=O)O)C(=O)O)[C@@H](C)O)C(=O)NCC(=O)N[C@@H](CCCNC(=N)N)C(=O)N[C@@H](CC(C)C)C(=O)N[C@@H](CO)C(=O)N[C@@H](C)C(=O)N[C@@H](CCC(=O)O)C(=O)N[C@@H](CC(C)C)C(=O)N[C@@H](Cc1cnc[nH]1)C(=O)N[C@@H](CCC(=O)O)C(=O)N[C@@H](CC(C)C)C(=O)N[C@@H](C)C(=O)N[C@H](C(=O)N[C@@H](CC(C)C)C(=O)N1CCC[C@H]1C(=O)N[C@@H](CCCNC(=N)N)C(=O)N[C@H](C(=O)N[C@@H](CCC(=O)O)C(=O)N[C@H](C(=O)NCC(=O)N[C@@H](CO)C(=O)NCC(=O)N[C@@H](CO)C(=O)N1CCC[C@H]1C(N)=O)[C@@H](C)O)[C@@H](C)O)[C@@H](C)O` ({C14 diacid-γGlu}-ASELSTAALGRLSAELHELATLPRTETGSGSP-NH2), the EC50 on Calcitonin receptor [1] was 0.004 nM; in [12] it was 0.006 nM. For the same compound, the IC50 in [2] is 0.122 nM; at Calcitonin receptor [3], 0.023 nM; in [6], 0.054 nM. Further, the solubility at 18 h in data set [4], in [5], in [7], in data set [8], in [10] and in [13] was at least 200 µM in each case. The solubility at 18 h in data set [14] and in data set [15] was at least 200 µM in each case. The remaining at 1 µM in [9] turned out to be 98%. In addition, the Time in data set [11] is over 45 h.
Turning to `CC(C)C[C@H](NC(=O)[C@H](C)NC(=O)[C@H](C)NC(=O)[C@@H](NC(=O)[C@H](CO)NC(=O)[C@H](CC(C)C)NC(=O)[C@H](CCC(=O)O)NC(=O)[C@H](CO)NC(=O)[C@H](C)NC(=O)CCCCCCCCCCCCCCCCC(=O)O)[C@@H](C)O)C(=O)NCC(=O)N[C@@H](CCCNC(=N)N)C(=O)N[C@@H](CC(C)C)C(=O)N[C@@H](CO)C(=O)N[C@@H](C)C(=O)N[C@@H](CCC(=O)O)C(=O)N[C@@H](CC(C)C)C(=O)N[C@@H](Cc1cnc[nH]1)C(=O)N[C@@H](CCC(=O)O)C(=O)N[C@@H](CC(C)C)C(=O)N[C@@H](C)C(=O)N[C@H](C(=O)N[C@@H](CC(C)C)C(=O)N1CCC[C@H]1C(=O)N[C@@H](CCCNC(=N)N)C(=O)N[C@H](C(=O)N[C@@H](CCC(=O)O)C(=O)N[C@H](C(=O)NCC(=O)N[C@@H](CO)C(=O)NCC(=O)N[C@@H](CO)C(=O)N1CCC[C@H]1C(N)=O)[C@@H](C)O)[C@@H](C)O)[C@@H](C)O` ({C18 diacid}-ASELSTAALGRLSAELHELATLPRTETGSGSP-NH2), the Activity amounted to 11% in the data set with Rattus norvegicus [16] and 52% with Rattus norvegicus [18]. For the same compound, the EC50 on Calcitonin receptor [1] is 0.017 nM; in data set [12] it was 0.018 nM; in data set [17], 9 pM; on Calcitonin receptor [19], 0.008 nM. Moreover, the IC50 in data set [2] was 0.063 nM; at Calcitonin receptor [3], 0.034 nM; in [6], 0.077 nM. Moreover, the solubility at 18 h in data set [4], in data set [5], in data set [7], in data set [8], in data set [10] and in data set [13] was at least 200 µM in each case. Moreover, the solubility at 18 h in [14] and in data set [15] was at least 200 µM in each case.
For `CC(C)C[C@H](NC(=O)[C@H](C)NC(=O)[C@H](C)NC(=O)[C@@H](NC(=O)[C@H](CO)NC(=O)[C@H](CC(C)C)NC(=O)[C@H](CCC(=O)O)NC(=O)[C@H](CO)NC(=O)[C@H](C)NC(=O)CC[C@H](NC(=O)CCCCCCCCCCCCCCCCCCC(=O)O)C(=O)O)[C@@H](C)O)C(=O)NCC(=O)N[C@@H](CCCNC(=N)N)C(=O)N[C@@H](CC(C)C)C(=O)N[C@@H](CO)C(=O)N[C@@H](C)C(=O)N[C@@H](CCC(=O)O)C(=O)N[C@@H](CC(C)C)C(=O)N[C@@H](Cc1cnc[nH]1)C(=O)N[C@@H](CCC(=O)O)C(=O)N[C@@H](CC(C)C)C(=O)N[C@@H](C)C(=O)N[C@H](C(=O)N[C@@H](CC(C)C)C(=O)N1CCC[C@H]1C(=O)N[C@@H](CCCNC(=N)N)C(=O)N[C@H](C(=O)N[C@@H](CCC(=O)O)C(=O)N[C@H](C(=O)NCC(=O)N[C@@H](CO)C(=O)NCC(=O)N[C@@H](CO)C(=O)N[C@@H](Cc1cnc[nH]1)C(N)=O)[C@@H](C)O)[C@@H](C)O)[C@@H](C)O` ({C20 diacid-γGlu}-ASELSTAALGRLSAELHELATLPRTETGSGSH-NH2), the EC50 at Calcitonin receptor [1] was 0.048 nM; in data set [12] it was 0.053 nM; at Calcitonin receptor [19], 0.072 nM. The IC50 was 0.046 nM in [2], 0.034 nM on Calcitonin receptor [3], 0.057 nM in data set [6] and 1.07 nM in data set [20]. Besides, the solubility at 18 h in data set [4], in data set [5], in data set [7], in [8], in [10] and in data set [13] was at least 200 µM in each case. For the same compound, the solubility at 18 h in [14] and in [15] was at least 200 µM in each case. For the same compound, the remaining at 1 µM in [9] was 100%. In data set [11], the Time is over 45 h.
